Experiment: Enzyme NEP Inhibition Assay: The assays were performed in 384-well white opaque plates at 37° C. using the fluorogenic peptide substrates at a concentration of 10 μM in Assay Buffer (NEP: 50 mM HEPES, pH 7.5, 100 mM NaCl, 0.01% polyethylene glycol sorbitan monolaurate (Tween-20), 10 μM ZnSO4; ACE: 50 mM HEPES, pH 7.5, 100 mM NaCl, 0.01% Tween-20, 1 μM ZnSO4). The respective enzymes were used at …
Description: Enzyme NEP Inhibition Assay: The assays were performed in 384-well white opaque plates at 37° C. using the fluorogenic peptide substrates at a concentration of 10 μM in Assay Buffer (NEP: 50 mM HEPES, pH 7.5, 100 mM NaCl, 0.01% polyethylene glycol sorbitan monolaurate (Tween-20), 10 μM ZnSO4; ACE: 50 mM HEPES, pH 7.5, 100 mM NaCl, 0.01% Tween-20, 1 μM ZnSO4). […] Test compounds were added to the enzymes and incubated for 30 minute at 37° C. prior to initiating the reaction by the addition of substrate.

O=C(O)C(=O)N[C@H](Cc1ccc(-c2ccccc2)cc1)CC(O)C(=O)O (stereo partly specified)
Ki: in the range around 35.5 nM

From ChEMBL document CHEMBL5725865, “Neprilysin inhibitors” (2018)
